Results on 2 molecules are retold here after patent publication US10617682B2 (ROSEMAN UNIVERSITY OF HEALTH SCIENCES, priority 2017, dated 2020).

Data set [1] is described as follows: HPLC potency of freshly prepared solution against USP standard prochlorperazine maleate. It is filed as physicochemical.
Procedure: The mobile phase consisted of the ion-pairing solution, acetonitrile, and methanol (50:40:10). The ion pairing solution was previously prepared by dissolving 4.33 g of sodium-1-octanesulfonic acid and 4.0 mL glacial acetic acid in 1000 mL of water. The chromatographic separation was achieved using a 3.9 mm×15 cm L1 (C18) column with 5 μm particle size. The flow-rate was 1.5 mL per minute and detection wavelength was 254 nm. The HPLC analysis was carried out by injecting 20 μL of sample into the Waters Alliance HPLC with Waters photodiode array (PDA) detector. Data acquisition and analysis was performed using WATERS® EMPOWER 3 software. The HPLC method was validated according to International Council on Harmonization (ICH) guidelines for various parameters including: linearity, accuracy and precision, robustness, and ruggedness.
Data set [2] can be described thus: Forced degradation studies by HPLC. It is filed as physicochemical. As to conditions: 0.1 mg/mL. How it is done:
The specificity of the HPLC method to degradation products was also assessed by subjecting prochlorperazine to various forced degradation conditions such as hydrolysis, oxidation, photodegradation, thermal degradation and UV irradiation.
The HPLC method used in this study was able to resolve prochlorperazine sulfoxide distinctly from prochlorperazine edisylate and trifluoperazine. […] Furthermore, forced degradation studies were also performed to assess any other degradation pathways that may interfere with prochlorperazine assay.

For data set [3] the following is noted: oral route; cited from earlier work.

Take `CN1CCN(CCCN2c3ccccc3Sc3ccc(Cl)cc32)CC1` [prochlorperazine edisylate]: the “potency compared with USP standard prochlorperazine maleate” value in data set [1] worked out at 99.7±2.3%.

As for `CN1CCN(CCCN2c3ccccc3Sc3ccc(Cl)cc32)CC1` [prochlorperazine, 2-chloro-10-[3-(4-methylpiperazin-1-yl)propyl]phenothiazine], the “degradation under acid hydrolysis” value in data set [2] (0.1 M hydrochloric acid 1 hour) is “did not show prochlorperazine degradation”. The degradation under oxidation result in data set [2] (0.1 M hydrogen peroxide overnight) was “showed degradation”. Besides, the “degradation under base hydrolysis” value in data set [2] (0.1 M sodium hydroxide 1 hour) is on record as “did not show prochlorperazine degradation”. Also, in data set [2] (60° C. overnight), the “degradation under thermal degradation” value is “did not show prochlorperazine degradation”. For the same molecule, the degradation under photodegradation entry in data set [2] (laboratory light overnight) is reported as “did not show prochlorperazine degradation”. The “degradation under UV irradiation” value in data set [2] (ultraviolet radiation overnight) is recorded as “showed degradation”. Moreover, the absorption entry in data set [3] is “low and variable absorption”.
